Data: PubChem BioAssay (NCI)
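Interpolation was linear, between the two tested concentrations surrounding the appropriate level; five concentrations were tested over 48 hours in 96-well plates. Definition used: TGI = concentration required for complete inhibition of growth.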 Where a SMILES comes first, the peptide text is derived from it. [ ]: non-standard residue; d: D form. The star is where a group is joined. X28 = COC1=CC(=O)N(C(=O)[C@@H](O*)C(C)C)[C@H]1Cc1ccccc1; Bn2Val = CC(C)[C@@H](C(=O)*)N(Cc1ccccc1)Cc1ccccc1; NMeV = CN[C@H](C(=O)O)C(C)C; dNMeA = CN[C@H](C)C(=O)O

Tests used:
Test in all cases: NCI anticancer screen, dose series, 48 h
PC-3 prostate = tested on: PC-3 prostate
OVCAR-5 ovarian = tested on: OVCAR-5 ovarian
OVCAR-4 ovarian = tested on: OVCAR-4 ovarian
HCC-2998 colon = tested on: HCC-2998 colon
SNB-19 CNS = tested on: SNB-19 CNS
SK-MEL-28 melanoma = tested on: SK-MEL-28 melanoma
U251 CNS = tested on: U251 CNS
SK-OV-3 ovarian = tested on: SK-OV-3 ovarian
SK-MEL-2 melanoma = tested on: SK-MEL-2 melanoma
HT29 colon = tested on: HT29 colon
RPMI-8226 leukemia = tested on: RPMI-8226 leukemia
NCI-H23 lung = tested on: NCI-H23 lung
A549 NSCLC = tested on: A549 NSCLC
NCI-H460 lung = tested on: NCI-H460 lung
IGROV1 ovarian = tested on: IGROV1 ovarian
MDA-MB-435 = tested on: MDA-MB-435
NCI-H226 lung = tested on: NCI-H226 lung
HL-60(TB) leukemia = tested on: HL-60(TB) leukemia
UACC-62 melanoma = tested on: UACC-62 melanoma
OVCAR-8 ovarian = tested on: OVCAR-8 ovarian
COLO 205 colon = tested on: COLO 205 colon
MDA-N = tested on: MDA-N
ACHN renal = tested on: ACHN renal
HCT-15 colon = tested on: HCT-15 colon
HOP-62 NSCLC = tested on: HOP-62 NSCLC
MCF7 breast = tested on: MCF7 breast
LOX IMVI melanoma = tested on: LOX IMVI melanoma
NCI-H522 lung = tested on: NCI-H522 lung
MALME-3M melanoma = tested on: MALME-3M melanoma
EKVX NSCLC = tested on: EKVX NSCLC
OVCAR-3 ovarian = tested on: OVCAR-3 ovarian
SW-620 colon = tested on: SW-620 colon
CAKI-1 renal = tested on: CAKI-1 renal
HOP-92 NSCLC = tested on: HOP-92 NSCLC
SF-295 CNS = tested on: SF-295 CNS
MOLT-4 leukemia = tested on: MOLT-4 leukemia
SF-268 CNS = tested on: SF-268 CNS
KM12 colon = tested on: KM12 colon
DU-145 prostate = tested on: DU-145 prostate
UO-31 renal = tested on: UO-31 renal
SN12C renal = tested on: SN12C renal
UACC-257 melanoma = tested on: UACC-257 melanoma
M14 melanoma = tested on: M14 melanoma
TK-10 renal = tested on: TK-10 renal
CCRF-CEM leukemia = tested on: CCRF-CEM leukemia
K-562 leukemia = tested on: K-562 leukemia
HCT-116 colon = tested on: HCT-116 colon
HS 578T breast = tested on: HS 578T breast
SF-539 CNS = tested on: SF-539 CNS
BT-549 breast = tested on: BT-549 breast
786-0 renal = tested on: 786-0 renal
SR leukemia = tested on: SR leukemia
NCI/ADR-RES ovarian = tested on: NCI/ADR-RES ovarian
MDA-MB-231 breast = tested on: MDA-MB-231 breast
SNB-75 CNS = tested on: SNB-75 CNS
T-47D breast = tested on: T-47D breast
RXF 393 renal = tested on: RXF 393 renal
SK-MEL-5 melanoma = tested on: SK-MEL-5 melanoma
A498 renal = tested on: A498 renal

With `O=C(CNc1nccs1)Nn1cnc2ccc(S(=O)(=O)Nc3nccs3)cc2c1=O` as the compound, how does the TGI (PC-3 prostate) read?
Its TGI is greater than 100 µM.

What about the TGI (OVCAR-5 ovarian) of the same compound?
The TGI was greater than 100 µM.

What about the TGI (OVCAR-4 ovarian) of the same compound?
Its TGI is greater than 100 µM.

And the TGI (HCC-2998 colon)?
The TGI was greater than 100 µM.

What about the TGI (SNB-19 CNS) of the same compound?
Its TGI is greater than 100 µM.

What about the TGI (SK-MEL-28 melanoma) of the same compound?
Its TGI is greater than 100 µM.

What about the TGI (U251 CNS) of the same compound?
Its TGI is greater than 100 µM.

And the TGI (SK-OV-3 ovarian)?
Its TGI is greater than 100 µM.

And the TGI (SK-MEL-2 melanoma)?
Its TGI is greater than 100 µM.

What about the TGI (HT29 colon) of the same compound?
The TGI was greater than 100 µM.

And the TGI (RPMI-8226 leukemia)?
Its TGI is greater than 100 µM.

What about the TGI (NCI-H23 lung) of the same compound?
The TGI was greater than 100 µM.

And the TGI (A549 NSCLC)?
The TGI was greater than 100 µM.

What about the TGI (NCI-H460 lung) of the same compound?
The TGI was greater than 100 µM.

And the TGI (IGROV1 ovarian)?
The TGI was greater than 100 µM.

And the TGI (MDA-MB-435)?
The TGI was greater than 100 µM.

And the TGI (NCI-H226 lung)?
The TGI was greater than 100 µM.

And the TGI (HL-60(TB) leukemia)?
Its TGI is greater than 100 µM.

And the TGI (UACC-62 melanoma)?
Its TGI is greater than 100 µM.

What about the TGI (OVCAR-8 ovarian) of the same compound?
The TGI was greater than 100 µM.

What about the TGI (COLO 205 colon) of the same compound?
Its TGI is greater than 100 µM.

And the TGI (MDA-N)?
The TGI was greater than 100 µM.

And the TGI (ACHN renal)?
The TGI was greater than 100 µM.

And the TGI (HCT-15 colon)?
Its TGI is greater than 100 µM.

And the TGI (HOP-62 NSCLC)?
The TGI was greater than 100 µM.

What about the TGI (MCF7 breast) of the same compound?
The TGI was greater than 100 µM.

And the TGI (LOX IMVI melanoma)?
The TGI was greater than 100 µM.

And the TGI (NCI-H522 lung)?
Its TGI is greater than 100 µM.

What about the TGI (MALME-3M melanoma) of the same compound?
Its TGI is greater than 100 µM.

What about the TGI (EKVX NSCLC) of the same compound?
Its TGI is greater than 100 µM.

What about the TGI (OVCAR-3 ovarian) of the same compound?
The TGI was greater than 100 µM.

And the TGI (SW-620 colon)?
Its TGI is greater than 100 µM.

And the TGI (CAKI-1 renal)?
Its TGI is greater than 100 µM.

And the TGI (HOP-92 NSCLC)?
The TGI was greater than 100 µM.

And the TGI (SF-295 CNS)?
The TGI was greater than 100 µM.

What about the TGI (MOLT-4 leukemia) of the same compound?
Its TGI is greater than 100 µM.

And the TGI (SF-268 CNS)?
The TGI was greater than 100 µM.

And the TGI (KM12 colon)?
Its TGI is greater than 100 µM.

What about the TGI (DU-145 prostate) of the same compound?
The TGI was greater than 100 µM.

And the TGI (UO-31 renal)?
Its TGI is greater than 100 µM.

And the TGI (SN12C renal)?
Its TGI is greater than 100 µM.

What about the TGI (UACC-257 melanoma) of the same compound?
The TGI was greater than 100 µM.

What about the TGI (M14 melanoma) of the same compound?
The TGI was greater than 100 µM.

What about the TGI (TK-10 renal) of the same compound?
Its TGI is greater than 100 µM.

What about the TGI (CCRF-CEM leukemia) of the same compound?
The TGI was greater than 100 µM.

What about the TGI (K-562 leukemia) of the same compound?
The TGI was greater than 100 µM.

And the TGI (HCT-116 colon)?
Its TGI is greater than 100 µM.

And the TGI (HS 578T breast)?
Its TGI is greater than 100 µM.

What about the TGI (SF-539 CNS) of the same compound?
Its TGI is greater than 100 µM.

What about the TGI (BT-549 breast) of the same compound?
Its TGI is greater than 100 µM.

And the TGI (786-0 renal)?
Its TGI is greater than 100 µM.

What about the TGI (SR leukemia) of the same compound?
Its TGI is greater than 100 µM.

And the TGI (NCI/ADR-RES ovarian)?
Its TGI is greater than 100 µM.

And the TGI (MDA-MB-231 breast)?
The TGI was greater than 100 µM.

And the TGI (SNB-75 CNS)?
The TGI was greater than 100 µM.

What does the source list for `COC1=CC(=O)N(C(=O)[C@@H](OC(=O)[C@@H](C)N(C)C(=O)[C@@H]2CCCN2C(=O)[C@H](C(C)C)N(C)C(=O)[C@@H](NC(=O)[C@H](C(C)C)N(Cc2ccccc2)Cc2ccccc2)C(C)C)C(C)C)[C@H]1Cc1ccccc1` (Bn2Val-V[NMeV]P[dNMeA]-X28)?
TGI (PC-3 prostate): > 100 µM; TGI (OVCAR-5 ovarian): > 100 µM; TGI (OVCAR-4 ovarian): > 100 µM; TGI (HCC-2998 colon): > 100 µM; TGI (SNB-19 CNS): > 100 µM; TGI (SK-MEL-28 melanoma): > 100 µM; TGI (U251 CNS): > 100 µM; TGI (SK-OV-3 ovarian): > 100 µM; TGI (SK-MEL-2 melanoma): > 100 µM; TGI (HT29 colon): > 100 µM; TGI (RPMI-8226 leukemia): > 100 µM; TGI (A549 NSCLC): > 100 µM; TGI (NCI-H460 lung): > 100 µM; TGI (IGROV1 ovarian): > 100 µM; TGI (MDA-MB-435): > 100 µM; TGI (NCI-H226 lung): > 100 µM; TGI (UACC-62 melanoma): > 100 µM; TGI (OVCAR-8 ovarian): > 100 µM; TGI (COLO 205 colon): > 100 µM; TGI (MDA-N): > 100 µM; TGI (ACHN renal): > 100 µM; TGI (HCT-15 colon): > 100 µM; TGI (HOP-62 NSCLC): > 100 µM; TGI (MCF7 breast): > 100 µM; TGI (LOX IMVI melanoma): > 100 µM; TGI (NCI-H522 lung): > 100 µM; TGI (MALME-3M melanoma): > 100 µM; TGI (EKVX NSCLC): > 100 µM; TGI (T-47D breast): > 100 µM; TGI (OVCAR-3 ovarian): > 100 µM; TGI (SW-620 colon): > 100 µM; TGI (CAKI-1 renal): > 100 µM; TGI (HOP-92 NSCLC): > 100 µM; TGI (SF-295 CNS): > 100 µM; TGI (SF-268 CNS): > 100 µM; TGI (KM12 colon): > 100 µM; TGI (DU-145 prostate): > 100 µM; TGI (UO-31 renal): 22.3 µM; TGI (SN12C renal): > 100 µM; TGI (UACC-257 melanoma): > 100 µM; TGI (M14 melanoma): > 100 µM; TGI (TK-10 renal): > 100 µM; TGI (CCRF-CEM leukemia): > 100 µM; TGI (RXF 393 renal): > 100 µM; TGI (K-562 leukemia): > 100 µM; TGI (HCT-116 colon): > 100 µM; TGI (HS 578T breast): > 100 µM; TGI (SF-539 CNS): > 100 µM; TGI (BT-549 breast): > 100 µM; TGI (786-0 renal): > 100 µM; TGI (SK-MEL-5 melanoma): > 100 µM; TGI (SR leukemia): > 100 µM; TGI (NCI/ADR-RES ovarian): > 100 µM; TGI (MDA-MB-231 breast): > 77.6 µM; TGI (SNB-75 CNS): > 54.8 µM; TGI (A498 renal): > 100 µM
